Where a SMILES comes first, the peptide text is derived from it. Where no end group is shown, it is not given here. The star is where a group is joined. Dansyl = CN(C)c1cccc2c(S(=O)(=O)*)cccc12
Columns and labels:
SPOP MATH WT [1] = biological target: T1, SPOP MATH WT (Homo sapiens, UniProt O43791); assay: Stopped-flow displacement; format: binding; settings: preincubated complex (both 8 µM) mixed with 50 μM nondansylated peptide, 298 K, average of five single traces
Protocol: (§1) To infer the mechanism of recognition of SPOP MATH, we resorted to performing time-resolved kinetic experiments. SPOP MATH was rapidly mixed with increasing concentrations of dansylated peptides (from 2 to 10 µM for Puc and MacroH2A, and from 2 to 40 µM for PTEN) in a stopped-flow apparatus at 298 K. The binding traces obtained by monitoring the time-resolved fluorescence were satisfactorily fitted to a single exponential equation, allowing calculating the observed rate constants kobs at different peptide concentrations. We then plotted the kobs values over the concentration of dansylated peptide and fitted the data to a simple linear function equation: kobs=kon Peptide+koff where kobs is the observed rate constant; kon and koff are the microscopic association and dissociation rate constants, respectively (Figure 2). The slope and y-axis intercept represent the microscopic association and dissociation rate constant, respectively. To minimize the error associated with the indirect measurement of the dissociation rate constant, we carried out displacement experiments to determine the koff values. The displacement experiments were designed by mixing the preformed complex SPOP MATH-dansylated peptides with a high excess of nondansylated peptide, as described in the Section 4. […] On the basis of these observations, it is possible to conclude that, in the case of binding to MacroH2A and PTEN, there is the presence of an additional step, which escapes detection by stopped-flow experiments and is likely to be negligible in the case of Puc. […] We note that such a case closely resembles the presence of a so-called burst phase, which is frequently observed in protein-folding studies.
Microscopic dissociation rate constants (koff) were directly measured by performing displacement experiments on an Applied Photophysics DX-17MV stopped-flow apparatus (Applied Photophysics). […] The samples were excited at 280 nm and fluorescence emission was collected by using a 330 ± 30 nm bandpass filter. […] The observed rate constants were calculated from the average of five single traces. […]
Target sequence in this assay (O43791 1-182): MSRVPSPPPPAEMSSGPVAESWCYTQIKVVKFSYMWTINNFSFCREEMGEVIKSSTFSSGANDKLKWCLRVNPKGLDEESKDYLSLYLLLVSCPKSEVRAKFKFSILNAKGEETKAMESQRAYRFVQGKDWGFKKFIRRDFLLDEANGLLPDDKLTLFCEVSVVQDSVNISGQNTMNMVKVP

SPOP MATH WT [2] = biological target: T1, SPOP MATH WT; assay: Stopped-flow pseudo-first-order binding kinetics; settings: 298 K; for kon: stopped-flow, 2 µM MATH domain, dansylated peptide 2 to 10 µM (Puc, MacroH2A) or 2 to 40 µM (PTEN), 50 mM sodium-HEPES, pH 7.2 (for ionic strength series), five traces averaged, slope of kobs vs peptide
Protocol: as §1
Binding kinetic experiments were performed on an Applied Photophysics DX-17MV stopped-flow apparatus (Applied Photophysics, Leatherhead, UK). Pseudo-first-order binding experiments were performed by mixing a constant concentration (2 μM) of MATH domain with increasing dansylated peptides concentrations, from 2 to 10 μM of Puc and MacroH2A, and 2 to 40 µM of PTEN. The samples were excited at 280 nm, and the emission fluorescence was recorded by using a bandpass 320 nm cutoff filter. The experiments were performed at 298 K. For ionic strength dependence with Puc and MacroH2A, the buffers used were 50 mM sodium-HEPES, pH 7.2, supplemented with 50 mM, 100 mM, 200 mM, or 500 mM of sodium chloride (NaCl). For the PTEN binding salt dependence experiments, lower concentrations of salt were added for the previous buffer list mentioned (10 mM, 25 mM, and 50 mM of sodium chloride). For each acquisition, five traces were collected, averaged, and satisfactorily fitted to a single exponential equation.

SPOP MATH WT [3] = biological target: T1, SPOP MATH WT; assay: Equilibrium binding, FRET (Trp to dansyl), fluorescence titration; settings: read-out: Equilibrium KD; dansylated peptide 0 to 40 µM; constant SPOP MATH WT (2 µM in methods, 1 µM in results); excitation 280 nm, emission 300-400 nm; 298 K; hyperbolic fit
Source text: The MATH domain of SPOP exerts its functions by specifically recognizing different substrates and, therefore, acting as an adaptor module between SPOP and its physiological ligands. In an effort to provide a complete characterization of SPOP MATH binding mechanisms, we investigated the recognition of three peptides mimicking a specific region of the substrates Puc (region 96–105), MacroH2A (region 166–179), and PTEN (region 354–368). […] Moreover, the three-dimensional structure of SPOP MATH in complexes with each of the peptides has been previously reported (3HQH, 3HQL, and 4OV1 PDB entries, respectively). Similar to previous work on other protein–protein recognition modules, we employed peptides carrying a covalently attached N-terminal dansyl fluorophore. Binding was then followed by measuring the FRET (Forster resonance energy transfer) between the three tryptophan residues of the SPOP MATH domain (donor) and the dansyl group of the peptides (acceptor).
To address the equilibrium binding affinity of SPOP MATH and its substrates, a fixed concentration of the protein (1 µM) was challenged with increasing peptide concentrations. In all cases, the fluorescence-monitored transition returned a hyperbolic behavior as described in the Section 4, which allowed estimating a dissociation constant of 1.4 ± 0.4 µM, 1.6 ± 0.2 µM, and 5.5 ± 0.5 µM for Puc, MacroH2A, and PTEN, respectively (Figure 2). These values appear partly consistent with what was previously reported by Zhuang et al. by using surface plasmon resonance. […]
Equilibrium binding experiments were performed on a Fluoromax-4 single-photon-counting spectrofluorometer (Jobin-Yvon, Newark, NJ, USA). The SPOP MATH domain was excited at 280 nm and emission spectra were recorded between 300 and 400 nm, at increasing dansylated peptide concentrations. […]

[4] = biological target: engineered MATH domain of SPOP (Speckle-type POZ protein), residues 1-182, cysteine residues substituted to serine (UniProt O43791); assay: stopped-flow fluorescence binding kinetics; pseudo-first-order; 2 µM MATH mixed with dansylated peptide, 2 to 10 µM Puc and MacroH2A, 2 to 40 µM PTEN; excitation 280 nm; 298 K; kobs against peptide concentration fitted to a line, kon from the slope
[5] = biological target: engineered MATH domain of SPOP (Speckle-type POZ protein), residues 1-182, cysteine residues substituted to serine (UniProt O43791); assay: stopped-flow fluorescence displacement; preincubated complex of MATH domain and dansylated peptide (both 8 µM) mixed with an excess of nondansylated peptide (50 µM); 298 K; same buffer as the binding experiments; single exponential decay gives koff
[6] = biological target: engineered MATH domain of SPOP (Speckle-type POZ protein), residues 1-182, cysteine residues substituted to serine (UniProt O43791); assay: stopped-flow fluorescence binding kinetics + other: stopped-flow fluorescence displacement; KD calculated by combining kon of the pseudo-first-order plots with koff of the displacement experiments; 298 K
[7] = biological target: engineered MATH domain of SPOP (Speckle-type POZ protein), residues 1-182, cysteine residues substituted to serine (UniProt O43791); assay: other fluorescence titration; equilibrium; FRET from the tryptophans of SPOP MATH (excited at 280 nm, emission 300-400 nm) to the dansyl of the peptide; MATH at constant concentration (2 µM in the methods, 1 µM in the results), dansylated peptide 0 to 40 µM; 298 K; hyperbolic fit

kon [4] [M⁻¹ s⁻¹]	koff [5] [s⁻¹]	Kd [6] [µM]	Kd [7] [µM]	Molecule	koff (SPOP MATH WT [1]) [s⁻¹]	kon (SPOP MATH WT [2]) [M⁻¹ s⁻¹]	Kd (SPOP MATH WT [3]) [µM]	Kd (SPOP MATH WT [2]; read-out: Kinetics KD, WT, from kon (pseudo-first-order) and koff (displacement)) [µM]
–	–	–	–	C[C@H](NC(=O)[C@H](C)NC(=O)[C@H](CCCCN)NS(=O)(=O)c1cccc2c(N(C)C)cccc12)C(=O)N[C@@H](CO)C(=O)N[C@@H](C)C(=O)N[C@@H](CC(=O)O)C(=O)N[C@@H](CO)C(=O)N[C@H](C(=O)N[C@H](C(=O)N[C@@H](CCC(=O)O)C(=O)NCC(=O)N[C@H](C(=O)N1CCC[C@H]1C(=O)N[C@@H](C)C(=O)N[C@@H](CC(=O)O)C(=O)O)[C@@H](C)O)[C@@H](C)O)[C@@H](C)O [MacroH2A] (HELM PEPTIDE1{[CN(C)c1cccc2c(S(=O)(=O)[*:2])cccc12].K.A.A.S.A.D.S.T.T.E.G.T.P.A.D}$$$$V2.0)	21 ± 2	3e+06 ± 2e+06	1.6 ± 0.2	–
–	–	–	–	CC(C)[C@H](NC(=O)[C@H](CO)NC(=O)[C@@H](NC(=O)[C@H](CO)NC(=O)[C@H](CO)NC(=O)[C@H](CO)NC(=O)[C@H](C)NC(=O)[C@H](CCC(=O)O)NC(=O)[C@@H]1CCCN1C(=O)[C@H](CC(N)=O)NC(=O)[C@H](CO)NC(=O)[C@@H]1CCCN1S(=O)(=O)c1cccc2c(N(C)C)cccc12)[C@@H](C)O)C(=O)N[C@H](C(=O)N1CCC[C@H]1C(=O)N[C@@H](CC(=O)O)C(=O)O)[C@@H](C)O [PTEN] (HELM PEPTIDE1{[CN(C)c1cccc2c(S(=O)(=O)[*:2])cccc12].P.S.N.P.E.A.S.S.S.T.S.V.T.P.D}$$$$V2.0)	113 ± 1	5.5e+06 ± 500000	4 ± 1	20.8 ± 0.4
3e+06	21	7.8	–	Dansyl-KAASADSTTEGTPAD [dansylated peptide mimicking MacroH2A (region 166-179)]	–	–	–	–
5.5e+06	113	–	5.5	Dansyl-PSNPEASSSTSVTPD [dansylated peptide mimicking PTEN (region 354-368)]	–	–	–	–

Reference: article PMC10298926, “Biophysical Characterization of the Binding Mechanism between the MATH Domain of SPOP and Its Physiological Partners” (International Journal of Molecular Sciences, 2023)
